EC50 and IC50 data for 17 compounds are collected here from patent US8501238B2, “Anti-infective agents and uses thereof” (priority 2007, dated 2013).

Usually EC50 stands for the midpoint of the concentration-response curve. A word on the IC50: it is the concentration at which inhibition is half-maximal. A low value points to inhibition by little substance.

For experiment [1], the system named is genotype 1b-Con1 subgenomic replicon cell line. The experiment in a line: microbe, parasite or virus in culture. The class given is cell-based, HCV. As to conditions: Hepatitis C virus, 72 h, read-out: EC50 1b.
The subject of experiment [2] is genotype 1a-H77 subgenomic replicon cell line. The experiment in a line: microbe, parasite or virus in culture. The conditions noted are these: Hepatitis C virus, 72 h, read-out: EC50 1a. The experiment is classed as cell-based, HCV.
The target of experiment [3] is T1, HCV polymerase 1A (Δ21 NS5B) (Hepatitis C virus genotype 1a, UniProt P27958).
T1 construct: 20 to 50nM Δ21 NS5B
The experiment in a line: HCV Polymerase Inhibition Assay (1a). The experiment is classed as biochemical. As to the method:
The reaction was initiated by the addition of 20μM CTP, 20μM ATP, 1μM ^3H-UTP (10mCi/umol), 5nM template RNA and 0.1 U/μl RNase inhibitor (RNasin, Promega), and allowed to proceed for 2 to 4h at room temperature. Reaction volume was 50μl. The reaction was terminated by the addition of 1 volume of 4mM spermine in 10mM Tris-Cl pH 8.0, 1mM EDTA. After incubation for at least 15 min at room temperature, the precipitated RNA was captured by filtering through a GF/B filter (Millipore) in a 96 well format. The filter plate was washed three times with 200μl each of 2mM spermine, 10mM Tris-Cl pH 8.0, lmM EDTA, and 2 times with ethanol. After air-drying, 30μl of Microscint 20 scintillation cocktail (Packard) was added to each well, and the retained cpm were determined by scintillation counting. […] Retained cpm were plotted vs. inhibitor concentration and fit to equation 1 using non-linear regression (ref. 1) to obtain the IC50 values: Retained cpm=A[sqrt{(IC50+It−Et)^2+4*IC50*Et}−([…])]
Ref. Morrison, J. F. and S. R. Stone. […] Approaches to the study and analysis of the inhibition of enzymes by slow- and tight-binding inhibitors. Comments Mol. Cell. Biophys.
(§1) The sequence of the template RNA used was: 5′-[…]-3′

Experiment [4] has as its target T2, HCV polymerase 1B (Δ21 NS5B) (Hepatitis C virus genotype 1b, UniProt P26663).
T2 construct: 20 to 50nM Δ21 NS5B
Put plainly: biochemical. As to the method: Either two-fold serial dilutions (fractional inhibition assay) or a narrower range of dilutions spanning the IC50 of the inhibitor (tight binding assay) of the inhibitors were incubated with 20mM Tris-Cl pH 7.4, 2 mM MnCl2, 1 mM dithiothreitol, 1 mM ethylene diamine tetraacetic acid (EDTA), 60 to 125μM GTP and 20 to 50nM Δ21 NS5B (HCV Strain 1B (BK, Genbank accession number M58335, or H77, Genbank accession number AF011751)) for 15min at room temperature. The reaction was initiated by the addition of 20μM CTP, 20μM ATP, 1μM ^3H-UTP (10mCi/umol), 5nM template RNA and 0.1 U/μl RNase inhibitor (RNasin, Promega), and allowed to proceed for 2 to 4h at room temperature. Reaction volume was 50μl. The reaction was terminated by the addition of 1 volume of 4mM spermine in 10mM Tris-Cl pH 8.0, 1mM EDTA. After incubation for at least 15 min at room temperature, the precipitated RNA was captured by filtering through a GF/B filter (Millipore) in a 96 well format. The filter plate was washed three times with 200μl each of 2mM spermine, 10mM Tris-Cl pH 8.0, lmM EDTA, and 2 times with ethanol. After air-drying, 30μl of Microscint 20 scintillation cocktail (Packard) was added to each well, and the retained cpm were determined by scintillation counting. […] Retained cpm were plotted vs. inhibitor concentration and fit to equation 1 using non-linear regression (ref. 1) to obtain the IC50 values: Retained cpm=A[sqrt{(IC50+It−Et)^2+4*IC50*Et}−([…])]
Ref. Morrison, J. F. and S. R. Stone. 1985. Approaches to the study and analysis of the inhibition of enzymes by slow- and tight-binding inhibitors. Comments Mol. Cell. Biophys. 2: 347-368.
as §1

T1 sequence (P27958 2421-2990, stated change not applied): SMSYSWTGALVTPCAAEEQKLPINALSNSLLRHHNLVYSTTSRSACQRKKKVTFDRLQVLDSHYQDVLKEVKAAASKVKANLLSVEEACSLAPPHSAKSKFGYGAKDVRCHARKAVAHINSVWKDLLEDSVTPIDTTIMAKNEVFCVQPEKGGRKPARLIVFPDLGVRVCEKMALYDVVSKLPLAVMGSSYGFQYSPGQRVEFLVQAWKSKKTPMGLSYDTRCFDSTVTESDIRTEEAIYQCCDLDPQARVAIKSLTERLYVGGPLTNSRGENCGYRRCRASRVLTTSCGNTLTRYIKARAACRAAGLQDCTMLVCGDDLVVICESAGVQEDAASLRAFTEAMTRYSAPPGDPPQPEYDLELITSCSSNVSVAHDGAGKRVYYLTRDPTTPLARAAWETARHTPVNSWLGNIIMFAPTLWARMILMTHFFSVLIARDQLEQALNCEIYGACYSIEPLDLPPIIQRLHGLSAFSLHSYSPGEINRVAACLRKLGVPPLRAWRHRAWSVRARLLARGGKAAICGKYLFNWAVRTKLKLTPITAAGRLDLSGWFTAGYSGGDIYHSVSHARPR
T2 sequence (P26663 2420-2989, stated change not applied): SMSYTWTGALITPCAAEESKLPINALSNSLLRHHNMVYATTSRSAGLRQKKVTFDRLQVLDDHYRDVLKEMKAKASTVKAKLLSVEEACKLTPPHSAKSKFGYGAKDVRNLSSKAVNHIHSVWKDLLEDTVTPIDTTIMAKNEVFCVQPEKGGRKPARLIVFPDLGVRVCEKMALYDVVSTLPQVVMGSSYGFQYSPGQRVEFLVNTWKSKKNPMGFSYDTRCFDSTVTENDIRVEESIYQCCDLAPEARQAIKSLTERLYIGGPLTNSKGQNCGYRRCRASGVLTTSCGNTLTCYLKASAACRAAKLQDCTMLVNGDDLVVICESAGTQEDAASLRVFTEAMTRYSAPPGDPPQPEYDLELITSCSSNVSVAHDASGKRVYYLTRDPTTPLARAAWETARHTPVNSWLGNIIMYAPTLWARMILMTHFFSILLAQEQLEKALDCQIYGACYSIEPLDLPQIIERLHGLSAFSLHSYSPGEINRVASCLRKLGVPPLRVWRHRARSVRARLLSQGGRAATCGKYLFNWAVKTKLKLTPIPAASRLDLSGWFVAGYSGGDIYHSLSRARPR

In the case of `COc1c(-c2ccc3nc(NS(C)(=O)=O)ccc3c2)cc(-n2ccc(=O)[nH]c2=O)cc1C(C)(C)C` [IB-L0-2.5, N-(6-(3-tert-butyl-5-(2,4-dioxo-3,4-dihydropyrimidin-1(2H)-yl)-2-methoxyphenyl)quinolin-2-yl)methanesulfonamide], the values for the concentration for a half-maximal effect (EC50) in experiment [1] and in experiment [2] were under 10 nM and 10 to 100 nM, respectively. Also, the IC50 in experiment [3] and in experiment [4] was 10 to 100 nM in each case.
As to `COc1c(-c2nc3cc(NS(C)(=O)=O)ccc3o2)cc(-n2ccc(=O)[nH]c2=O)cc1C(C)(C)C` [IB-L0-2.6, N-(2-(3-tert-butyl-5-(2,4-dioxo-3,4-dihydropyrimidin-1(2H)-yl)-2-methoxyphenyl)benzo[d]oxazol-5-yl)methanesulfonamide], the EC50 is 10 to 100 nM in experiment [1] and 100 to 1000 nM in experiment [2]. Besides, the IC50 in experiment [3] and in experiment [4] was 10 to 100 nM in each case.
Consider `COc1c(-c2ccc3c(c2)CC[C@]3(F)CNS(C)(=O)=O)cc(-n2ccc(=O)[nH]c2=O)cc1C(C)(C)C` [IB-L0-2.10, (R)-N-((5-(3-tert-butyl-5-(2,4-dioxo-3,4-dihydropyrimidin-1 (2H)-yl)-2-methoxyphenyl)-1-fluoro-2,3-dihydro-1H-inden-1-yl)methyl)methanesulfonamide], for which the concentration giving a half-maximal response (EC50) in experiment [1] and in experiment [2] was under 10 nM in each case. Moreover, the figures for the IC50 in experiment [3] and in experiment [4] were under 10 nM and 10 to 100 nM, respectively.
As for `COc1c(N2CCc3cc(NS(C)(=O)=O)ccc3C2)cc(-n2ccc(=O)[nH]c2=O)cc1C(C)(C)C` [IB-L0-2.19, N-(2-(3-tert-butyl-5-(2,4-dioxo-3,4-dihydropyrimidin-1(2H)-yl)-2-methoxyphenyl)-1,2,3,4-tetrahydroisoquinolin-6-yl)methanesulfonamide], the EC50 in experiment [1] and in experiment [2] was 10 to 100 nM throughout. Further, the values for the 50% inhibitory concentration (IC50) in experiment [3] and in experiment [4] were under 10 nM and 10 to 100 nM, respectively.
On to `COc1c(-c2ccc3c(c2)CC[C@@]3(F)CNS(C)(=O)=O)cc(-n2ccc(=O)[nH]c2=O)cc1C(C)(C)C` [IB-L0-2.20, (S)-N-((5-(3-tert-butyl-5-(2,4-dioxo-3,4-dihydropyrimidin-1(2H)-yl)-2-methoxyphenyl)-1-fluoro-2,3-dihydro-1H-inden-1-yl)methyl)methanesulfonamide], for which the half-maximal effective concentration (EC50) in experiment [1] fell in the range of 10 to 100 nM; in experiment [2], 100 to 1000 nM. Moreover, the IC50 in experiment [3] was under 10 nM; in experiment [4] it was 10 to 100 nM.
Turning to `COc1c(-c2ccc3nc(NS(C)(=O)=O)cnc3c2)cc(-n2ccc(=O)[nH]c2=O)cc1C(C)(C)C` [IB-L0-2.26, N-(6-(3-tert-butyl-5-(2,4-dioxo-3,4-dihydropyrimidin-1(2H)-yl)-2-methoxyphenyl)quinoxalin-2-yl)methanesulfonamide], the EC50 is 100 to 1000 nM in experiment [1] and over 1000 nM in experiment [2]. The half-inhibitory concentration (IC50) in experiment [3] and in experiment [4] was 10 to 100 nM in each case.
Regarding `COc1c(-c2ccc3nc(N)sc3c2)cc(-n2ccc(=O)[nH]c2=O)cc1C(C)(C)C` [IB-L0-2.27, 1-(3-(2-aminobenzo[d]thiazol-6-yl)-5-tert-butyl-4-methoxy-phenyl)pyrimidine-2,4(1H,3H)-dione], the 50% effective concentration (EC50) was 10 to 100 nM in experiment [1] and 100 to 1000 nM in experiment [2]. In addition, the IC50 in experiment [3] and in experiment [4] was 10 to 100 nM each time.
Regarding `COc1c(-c2ccc3nc(NS(C)(=O)=O)sc3c2)cc(-n2ccc(=O)[nH]c2=O)cc1C(C)(C)C` [IB-L0-2.28, N-(6-(3-tert-butyl-5-(2,4-dioxo-3,4-dihydropyrimidin-1(2H)-yl)-2-methoxyphenyl)benzo[d]thiazol-2-yl)methanesulfonamide], the half-maximal effective concentration (EC50) is 100 to 1000 nM in experiment [1] and over 1000 nM in experiment [2]. Also, the IC50 in experiment [3] and in experiment [4] was 10 to 100 nM each time.
As for `COc1c(-c2ccc3c(c2)CNC3=O)cc(-n2ccc(=O)[nH]c2=O)cc1C(C)(C)C` [IB-L0-2.30, 1-(3-tert-butyl-4-methoxy-5-(1-oxoisoindolin-5-yl)phenyl)-pyrimidine-2,4(1H,3H)-dione], the EC50 in experiment [1] fell in the range of 10 to 100 nM; in experiment [2], 100 to 1000 nM. The IC50 in experiment [3] and in experiment [4] was 10 to 100 nM each time.
As for `COc1c(-c2ccc3c(c2)CCN3S(C)(=O)=O)cc(-n2ccc(=O)[nH]c2=O)cc1C(C)(C)C` [IB-L0-2.32, 1-(3-tert-butyl-4-methoxy-5-(1-(methylsulfonyl)indolin-5-yl)phenyl)pyrimidine-2,4(1H,3H)-dione], the half-maximal effective concentration (EC50) lay in the range of 10 to 100 nM in experiment [1] and 100 to 1000 nM in experiment [2]. The 50% inhibitory concentration (IC50) in experiment [3] and in experiment [4] was 10 to 100 nM each time.
Consider `COc1c(-c2ccc3ncsc3c2)cc(-n2ccc(=O)[nH]c2=O)cc1C(C)(C)C` [IB-L0-2.33, 1-(3-(benzo[d]thiazol-6-yl)-5-tert-butyl-4-methoxyphenyl)pyrimidine-2,4(1H,3H)-dione], for which the EC50 in experiment [1] and in experiment [2] was 100 to 1000 nM in each case. Moreover, the IC50 in experiment [3] and in experiment [4] was 10 to 100 nM in each case.
In the case of `COc1c(-c2ccc3nc(Cl)sc3c2)cc(-n2ccc(=O)[nH]c2=O)cc1C(C)(C)C` [IB-L0-2.38, 1-(3-tert-butyl-5-(2-chlorobenzo[d]thiazol-6-yl)-4-methoxyphenyl)pyrimidine-2,4(1H,3H)-dione], the half-maximal effective concentration (EC50) in experiment [1] and in experiment [2] was over 1000 nM throughout. Further, the IC50 in experiment [3] fell in the range of 100 to 1000 nM; in experiment [4], 10 to 100 nM.
Regarding `COc1c(-c2ccc3c(c2)CC=C3C(C)(C)NS(C)(=O)=O)cc(-n2ccc(=O)[nH]c2=O)cc1C(C)(C)C` [IB-L0-2.41, N-(2-(6-(3-tert-butyl-5-(2,4-dioxo-3,4-dihydropyrimidin-1(2H)-yl)-2-methoxyphenyl)-1H-inden-3-yl)propan-2-yl)methanesulfonamide], the EC50 in experiment [1] and in experiment [2] was 100 to 1000 nM in each case. Also, the IC50 in experiment [3] and in experiment [4] was 100 to 1000 nM in each case.
In the case of `COc1c(-c2ccc3c(C)coc3c2)cc(-n2ccc(=O)[nH]c2=O)cc1C(C)(C)C` [IB-L0-2.42, 1-(3-tert-butyl-4-methoxy-5-(3-methylbenzofuran-6-yl)phenyl)-pyrimidine-2,4(1H,3H)-dione], the concentration giving a half-maximal response (EC50) in experiment [1] and in experiment [2] was 100 to 1000 nM throughout. For the same compound, the 50% inhibitory concentration (IC50) in experiment [3] and in experiment [4] was 100 to 1000 nM each time.
`COc1c(-c2ccc3c(c2)CCN(NS(C)(=O)=O)C3)cc(-n2ccc(=O)[nH]c2=O)cc1C(C)(C)C` [IB-L0-2.43, N-(6-(3-tert-butyl-5-(2,4-dioxo-3,4-dihydropyrimidin-1(2H)-yl)-2-methoxyphenyl)-3,4-dihydroisoquinolin-2(1H)-yl)methanesulfonamide]: the values for the concentration giving a half-maximal response (EC50) in experiment [1] and in experiment [2] were 100 to 1000 nM and over 1000 nM, respectively. Besides, the IC50 in experiment [3] and in experiment [4] was 100 to 1000 nM in each case.
With `COc1c(-c2ccc3c(CNS(C)(=O)=O)noc3c2)cc(-n2ccc(=O)[nH]c2=O)cc1C(C)(C)C` [IB-L0-2.45], the EC50 in experiment [1] is 100 to 1000 nM; in experiment [2], over 1000 nM. Besides, the IC50 in experiment [3] and in experiment [4] was 100 to 1000 nM in each case.
As for `COc1c(-c2ccc3c(c2)/C(=N/NS(C)(=O)=O)CC3)cc(-n2ccc(=O)[nH]c2=O)cc1-c1cccs1` [IB-L0-2.51, (E)-N′-(6-(5-(2,4-dioxo-3,4-dihydropyrimidin-1(2H)-yl)-2-methoxy-3-(thiophen-2-yl)phenyl)-2,3-dihydro-1H-inden-1-ylidene)methanesulfonohydrazide], the results for the EC50 in experiment [1] and in experiment [2] were under 10 nM and 10 to 100 nM, respectively. Also, the IC50 in experiment [3] is under 10 nM; in experiment [4], 10 to 100 nM.
